Values of other authors in EP1487791B1, “A NOVEL ANTIFUNGAL MOLECULE 2-(3,4-DIMETHYL-2,5-DIHYDRO-1H-PYRROL-2-YL)- METHYLETHYL PENTANOATE” (priority 2002, dated 2003).

Conditions: reported by Zager, R.A., 2000; cited from earlier work

In the case of `C[C@@H]1[C@H](O)[C@@H](C)/C=C/C=C/C=C/C=C/C=C/C=C/C=C/[C@H](O[C@@H]2O[C@H](C)[C@@H](O)[C@H](N)[C@@H]2O)C[C@@H]2O[C@](O)(C[C@@H](O)C[C@@H](O)[C@H](O)CC[C@@H](O)C[C@@H](O)CC(=O)O[C@H]1C)C[C@H](O)[C@H]2C(=O)O` [amphotericin B], the CT50 is listed as 4.0 to 64.0 µg/mL.
